For data set [1] the following is noted: human gut metagenome, 24 h, 2 µM.
The conditions of data set [2]: human gut metagenome, 24 h, 2 µM. This is another data set of the same source.
Data set [3] can be described thus: The drug is tested on WLS-077 corresponding to human gut metagenome with ENA study accession number: PRJEB37062 and ENA sample accession number: ERS12561750 for biotransformation under anaerobic condition. The drug concentrations were measured over 9 timepoints collected between 0 and 24 hours of incubation by liquid-chromatography-coupled mass spectrometry (LC–MS). Conditions: 2 µM.

Data set [4] is described as follows: The drug is tested on Z-014 corresponding to rat gut metagenome with ENA study accession number: PRJEB37062 and ENA sample accession number: ERS12561814 for biotransformation under anaerobic condition. The drug concentrations were measured over 9 timepoints collected between 0 and 24 hours of incubation by liquid-chromatography-coupled mass spectrometry (LC–MS). The note with it: 2 µM.

For data set [5] the following is noted: human gut metagenome, 24 h, 2 µM. This is another data set of the same source.
Data set [6] can be described thus: The drug is tested on Z-001 corresponding to mouse gut metagenome with ENA study accession number: PRJEB37062 and ENA sample accession number: ERS12561801 for biotransformation under anaerobic condition. The drug concentrations were measured over 9 timepoints collected between 0 and 24 hours of incubation by liquid-chromatography-coupled mass spectrometry (LC–MS). Conditions: 2 µM.

Data set [7] can be described thus: The drug is tested on WLS-086 corresponding to human gut metagenome with ENA study accession number: PRJEB37062 and ENA sample accession number: ERS12561752 for biotransformation under anaerobic condition. The drug concentrations were measured over 9 timepoints collected between 0 and 24 hours of incubation by liquid-chromatography-coupled mass spectrometry (LC–MS). The note with it: 2 µM.

The conditions of data set [8]: human gut metagenome, 24 h, 2 µM. The source holds these as a separate data set.
Data set [9] is described as follows: The drug is tested on Z-007 corresponding to rat gut metagenome with ENA study accession number: PRJEB37062 and ENA sample accession number: ERS12561807 for biotransformation under anaerobic condition. The drug concentrations were measured over 9 timepoints collected between 0 and 24 hours of incubation by liquid-chromatography-coupled mass spectrometry (LC–MS). Conditions: 2 µM.

Data set [10] in a line: The drug is tested on Z-026 corresponding to metagenome with ENA study accession number: PRJEB37062 and ENA sample accession number: ERS12561825 for biotransformation under anaerobic condition. The drug concentrations were measured over 9 timepoints collected between 0 and 24 hours of incubation by liquid-chromatography-coupled mass spectrometry (LC–MS). Conditions: 2 µM.

Data set [11] is described as follows: The drug is tested on WLS-052 corresponding to human gut metagenome with ENA study accession number: PRJEB37062 and ENA sample accession number: ERS12561747 for biotransformation under anaerobic condition. The drug concentrations were measured over 9 timepoints collected between 0 and 24 hours of incubation by liquid-chromatography-coupled mass spectrometry (LC–MS). Conditions: 2 µM.

The conditions of data set [12]: human gut metagenome, 24 h, 2 µM. The source holds these as a separate data set.
Data set [13] in a line: The drug is tested on WLS-370 corresponding to human gut metagenome with ENA study accession number: PRJEB37062 and ENA sample accession number: ERS12561793 for biotransformation under anaerobic condition. The drug concentrations were measured over 9 timepoints collected between 0 and 24 hours of incubation by liquid-chromatography-coupled mass spectrometry (LC–MS). The note with it: 2 µM.

For data set [14] the following is noted: human gut metagenome, 24 h, 2 µM. This is another data set of the same source.
The conditions of data set [15]: human gut metagenome, 24 h, 2 µM. The source holds these as a separate data set.
Data set [16] in a line: The drug is tested on WLS-010 corresponding to human gut metagenome with ENA study accession number: PRJEB37062 and ENA sample accession number: ERS12561743 for biotransformation under anaerobic condition. The drug concentrations were measured over 9 timepoints collected between 0 and 24 hours of incubation by liquid-chromatography-coupled mass spectrometry (LC–MS). The note with it: 2 µM.

For data set [17] the following is noted: human gut metagenome, 24 h, 2 µM. The source holds these as a separate data set.
The conditions of data set [18]: human gut metagenome, 24 h, 2 µM. This is another data set of the same source.
The conditions of data set [19]: human gut metagenome, 24 h, 2 µM. This is another data set of the same source.
The conditions of data set [20]: human gut metagenome, 24 h, 2 µM. The source holds these as a separate data set.

These results are taken from ChEMBL document CHEMBL5724914, “Linking interpersonal differences in gut microbiota composition and drug biotransformation activity” (2024).

The structures appear in SMILES notation.
Further: call rule not given here.

As to `Br.COc1ccc2c(c1)[C@]13CCCC[C@@H]1[C@H](C2)N(C)CC3.O` [DEXTROMETHORPHAN HYDROBROMIDE], the “Bacterial Biotransformation” value in [1] is on record as “Compound metabolized”; in data set [2] it was “Compound metabolized”; in data set [3], “Compound metabolized”; in [4] it was “Compound NOT metabolized”; in data set [5] it was “Compound NOT metabolized”; in data set [6], “Compound NOT metabolized”. For the same molecule, the “Bacterial Biotransformation” value in data set [7] is given as “Compound metabolized”; in data set [8], “Compound metabolized”; in data set [9] it was “Compound NOT metabolized”; in [10], “Compound NOT metabolized”; in data set [11] it was “Compound NOT metabolized”; in data set [12], “Compound metabolized”. Besides, the “Bacterial Biotransformation” value in data set [13] was “Compound metabolized”; in data set [14] it was “Compound NOT metabolized”; in [15], “Compound metabolized”; in data set [16], “Compound metabolized”; in data set [17], “Compound metabolized”; in [18], “Compound metabolized”. The figures for the “Bacterial Biotransformation” value in data set [19] and in [20] were “Compound metabolized” and “Compound NOT metabolized”, respectively.

As to `CC(=O)Nc1ccc(OC(C)=O)cc1` [DIACETAMATE], the “Bacterial Biotransformation” value in data set [1], in [2], in data set [3], in data set [4], in data set [5] and in data set [6] was “Compound metabolized” each time. In addition, the “Bacterial Biotransformation” value in data set [7], in data set [8], in data set [9], in data set [10], in [11] and in data set [12] was “Compound metabolized” each time. Also, the “Bacterial Biotransformation” value in data set [13], in data set [14], in data set [15], in data set [16], in data set [17] and in [18] was “Compound metabolized” each time. In addition, the “Bacterial Biotransformation” value in data set [19] and in data set [20] was “Compound metabolized” in each case.

For `CCN(CC)CCOC(=O)C1(C2CCCCC2)CCCCC1` [DICYCLOMINE], the “Bacterial Biotransformation” value is recorded as “Compound NOT metabolized” in data set [1]; “Compound metabolized” in data set [2]; “Compound NOT metabolized” in data set [3]; “Compound NOT metabolized” in [4]; “Compound NOT metabolized” in data set [5]; “Compound NOT metabolized” in data set [6]. Moreover, the “Bacterial Biotransformation” value in data set [7] was “Compound metabolized”; in data set [8], “Compound metabolized”; in [9], “Compound NOT metabolized”; in data set [10], “Compound NOT metabolized”; in data set [11], “Compound NOT metabolized”; in data set [12], “Compound metabolized”. For the same molecule, the “Bacterial Biotransformation” value is reported as “Compound NOT metabolized” in data set [13]; “Compound metabolized” in [14]; “Compound metabolized” in data set [15]; “Compound metabolized” in data set [16]; “Compound NOT metabolized” in [17]; “Compound metabolized” in data set [18]. Also, the “Bacterial Biotransformation” value in data set [19] is on record as “Compound metabolized”; in data set [20], “Compound NOT metabolized”.

As for `COc1ccc([C@@H]2Sc3ccccc3N(CCN(C)C)C(=O)[C@@H]2OC(C)=O)cc1` [DILTIAZEM], the “Bacterial Biotransformation” value in [1] is “Compound metabolized”; in [2] it was “Compound metabolized”; in data set [3], “Compound NOT metabolized”; in data set [4] it was “Compound NOT metabolized”; in data set [5], “Compound metabolized”; in [6], “Compound metabolized”. Moreover, the “Bacterial Biotransformation” value is given as “Compound metabolized” in data set [7]; “Compound metabolized” in data set [8]; “Compound NOT metabolized” in [9]; “Compound NOT metabolized” in data set [10]; “Compound NOT metabolized” in data set [11]; “Compound metabolized” in data set [12]. Further, the “Bacterial Biotransformation” value in [13] is “Compound metabolized”; in [14], “Compound metabolized”; in data set [15] it was “Compound NOT metabolized”; in [16], “Compound metabolized”; in [17], “Compound metabolized”; in data set [18], “Compound metabolized”. The “Bacterial Biotransformation” value is “Compound metabolized” in [19] and “Compound NOT metabolized” in data set [20].

In the case of `OCCN(CCO)c1nc(N2CCCCC2)c2nc(N(CCO)CCO)nc(N3CCCCC3)c2n1` [DIPYRIDAMOLE], the “Bacterial Biotransformation” value in [1] is on record as “Compound metabolized”; in data set [2], “Compound NOT metabolized”; in data set [3] it was “Compound metabolized”; in data set [4] it was “Compound NOT metabolized”; in [5], “Compound metabolized”; in [6], “Compound NOT metabolized”. For the same molecule, the “Bacterial Biotransformation” value is given as “Compound metabolized” in data set [7]; “Compound metabolized” in [8]; “Compound NOT metabolized” in data set [9]; “Compound metabolized” in [10]; “Compound metabolized” in data set [11]; “Compound metabolized” in data set [12]. Further, the “Bacterial Biotransformation” value in data set [13] is listed as “Compound metabolized”; in data set [14], “Compound NOT metabolized”; in data set [15], “Compound metabolized”; in data set [16], “Compound metabolized”; in data set [17], “Compound metabolized”; in [18], “Compound metabolized”. Moreover, the “Bacterial Biotransformation” value is “Compound metabolized” in data set [19] and “Compound NOT metabolized” in [20].

In the case of `COc1cc2nc(N3CCN(C(=O)C4COc5ccccc5O4)CC3)nc(N)c2cc1OC.CS(=O)(=O)O` (stereo not given) [DOXAZOSIN MESYLATE], the “Bacterial Biotransformation” value in [1] is given as “Compound metabolized”; in data set [2], “Compound metabolized”; in data set [3] it was “Compound metabolized”; in data set [4] it was “Compound NOT metabolized”; in data set [5], “Compound metabolized”; in [6], “Compound NOT metabolized”. In addition, the “Bacterial Biotransformation” value in [7] is on record as “Compound metabolized”; in data set [8] it was “Compound metabolized”; in [9], “Compound NOT metabolized”; in [10] it was “Compound metabolized”; in data set [11], “Compound NOT metabolized”; in [12], “Compound metabolized”. The “Bacterial Biotransformation” value in [13] is recorded as “Compound metabolized”; in [14] it was “Compound NOT metabolized”; in data set [15] it was “Compound NOT metabolized”; in [16], “Compound metabolized”; in data set [17], “Compound NOT metabolized”; in data set [18], “Compound metabolized”. Further, the entries for the “Bacterial Biotransformation” value in data set [19] and in [20] were “Compound metabolized” and “Compound NOT metabolized”, respectively.
